From US20160251403A1, “PEPTIDE COMBINATIONS AND USES THEREOF IN TREATING DUST MITE ALLERGY” (ALK-ABELLO A/S, priority 2013, published 2016) come the findings set out here.

One data set concerns the target DRB4_0101 (Homo sapiens, UniProt P01903+P13762, G164S). In words: Competitive MHC class II binding assay, DRB4_0101.
In a further data set the target is T1, DPA10103-DPB10402 (Homo sapiens, UniProt P04440+P20036, A65V/A84D/A85E/L207M).
T1 sequence (P20036 29-260): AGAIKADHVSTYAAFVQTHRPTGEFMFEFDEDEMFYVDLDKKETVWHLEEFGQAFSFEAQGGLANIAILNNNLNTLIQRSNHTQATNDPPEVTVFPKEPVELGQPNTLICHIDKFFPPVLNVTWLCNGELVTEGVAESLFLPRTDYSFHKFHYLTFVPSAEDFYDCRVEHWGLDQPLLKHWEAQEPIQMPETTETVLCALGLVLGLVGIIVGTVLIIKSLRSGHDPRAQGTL
T1 sequence (P04440 30-258 A65V/A84D/A85E): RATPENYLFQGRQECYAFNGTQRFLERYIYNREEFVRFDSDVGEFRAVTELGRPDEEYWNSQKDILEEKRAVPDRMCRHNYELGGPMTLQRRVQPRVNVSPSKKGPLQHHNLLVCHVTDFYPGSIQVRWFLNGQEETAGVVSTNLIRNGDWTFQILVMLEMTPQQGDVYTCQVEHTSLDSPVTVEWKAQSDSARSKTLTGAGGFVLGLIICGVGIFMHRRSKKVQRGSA
In words: Competitive MHC class II binding assay, DPA10103-DPB10402.

For the next data set, the target named is DRB1_0101 (Homo sapiens, UniProt P01903+P01911, A100R/D57E/F55L/F60I/F76Y/I96L/L162R/M171V/P40L/Q125E/R42F/V115G/Y59C). As to the kind of experiment: Competitive MHC class II binding assay, DRB1_0101.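 Also: competition against a radiolabeled probe peptide (0.1–1 nM) for purified HLA class II protein over 2–4 days, bound counts read after antibody capture, six competitor levels across 100,000-fold.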
The target in another data set is DRB5_0101 (Homo sapiens, UniProt P01903+Q30154). As to the kind of experiment: Competitive MHC class II binding assay, DRB5_0101.
The target of another data set is DQA10501-DQB10201 (Homo sapiens, UniProt P01909+P01920, A45G/A70V/D89A/E106A/E77G/E98D/H199R/L107V/N214S/P84L/P87L/T103K/T109R/T172A/T60S/V78E/V99I/Y58L/Y62S/Y69I/Y79F). In words: Competitive MHC class II binding assay, DQA10501-DQB10201.
The target in another data set is DQA10101-DQB10501 (Homo sapiens, UniProt P01909+P01920, A157S/A45G/A70V/C70R/D89V/E106S/E118A/E183D/E77G/F83G/G63E/H151Q/H199R/H252R/H253Q/I129T/I235V/I88M/INS77G/K197Q/L107V/L117V/L119Y/L178F/L71W/L74F/L85Q/L91A/L98M/M46L/N214S/P87R/Q116E/Q256R/Q57E/Q76K/R102G/R240Q/R75S/R78G/S102Y/S185I/S41F/S97I/T103A/T109R/T121G/T122I/T172A/T86R/V148I/V68A/V73E/Y34C/Y58G/Y62H). As to the kind of experiment: Competitive MHC class II binding assay, DQA10101-DQB10501. The following applies: positive binding at cutoff 1000 nM; read-out: HLA-DQA10101-DQB10501.

Data set [1] in a line: Solubility of peptides in aqueous solutions at different pH (visual inspection, OD, HPLC). In kind it is physicochemical. The gist of the method:
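Peptides at about 0.25 mM or 1 mM final in water, pH 2 HCl, or pH 5, 7 or 9 buffers with 140 mM NaCl, optionally with about 20% DMSO. Turbidity and particles checked visually before and after centrifugation and by OD. RP-HPLC peak height or area was compared with peptide dissolved in acetonitrile or DMSO.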

The test system of another data set is DQA10401-DQB10402. In words: Competitive MHC class II binding assay, DQA10401-DQB10402. The following applies: for IC50: read-out: HLA-DQA10401-DQB10402, positive binding at cutoff 1000 nM.
A further data set concerns the target DRB1_1501 (Homo sapiens, UniProt P01903+P01911). As to the kind of experiment: Competitive MHC class II binding assay, DRB1_1501.
A further data set addresses DRB3_0101 (Homo sapiens, UniProt P01903+P79483). In words: Competitive MHC class II binding assay, DRB3_0101.
A further data set addresses DRB1_1101 (Homo sapiens, UniProt P01903+P01911, A100R/A169T/A87E/I96F/K41T/L162R/M171V/P40S/Q125H/Q178H/Q39Y/Q99D/R42S/S66Y/T262R/V115G/W38E). As to the kind of experiment: Competitive MHC class II binding assay, DRB1_1101.

No end group written: not given here.

For `CC[C@H](C)[C@H](NC(=O)CNC(=O)[C@@H](NC(=O)[C@@H](NC(=O)[C@@H](NC(=O)[C@H](C)NC(=O)[C@@H](NC(=O)[C@H](C)NC(=O)[C@H](CO)NC(=O)[C@H](Cc1c[nH]cn1)NC(=O)[C@@H](NC(=O)[C@H](CCC(N)=O)NC(=O)[C@H](C)NC(=O)[C@H](CC(C)C)NC(=O)[C@H](C)NC(=O)[C@H](CCC(=O)O)NC(=O)[C@@H](N)CCCNC(=N)N)[C@@H](C)O)[C@@H](C)CC)C(C)C)[C@@H](C)CC)[C@@H](C)CC)C(=O)N[C@@H](CCCCN)C(=O)N[C@@H](CC(=O)O)C(=O)N[C@@H](CC(C)C)C(=O)N[C@@H](CC(=O)O)C(=O)N[C@@H](C)C(=O)O` [pep-130], the IC50 on DRB4_0101, on DPA10103-DPB10402, on DRB1_0101, at DRB5_0101, on DQA10501-DQB10201 and at DQA10101-DQB10501 was under 1000 nM throughout. Also, the “Solubility at pH 7 (visual inspection)” value in [1] is “Slight turbid”.
On to DNGYGYFAANIDLMMIEE [pep-010], for which the IC50 at DRB4_0101, on DPA10103-DPB10402, at DRB1_0101, on DQA10401-DQB10402, at DRB1_1501 and at DRB3_0101 was under 1000 nM each time. For the same compound, the IC50 at DQA10501-DQB10201 and at DQA10101-DQB10501 was under 1000 nM each time. In addition, the “binding to HLA Class II allele DQA10401-DQB10402” value in the data set on DQA10401-DQB10402 (as shown in Table 16a) was “binds to at least the same alleles as peptide 041”. The “binding to HLA Class II allele DRB3_0101” value on DRB3_0101 (as shown in Table 16a) is “binds to at least the same alleles as peptide 041”. In addition, the “binding to HLA Class II allele DQA10501-DQB10201” value at DQA10501-DQB10201 (as shown in Table 16a) is “binds to at least the same alleles as peptide 041”.
On to GSGSSWAFSGVAATESAYLA [pep-044], for which the IC50 on DPA10103-DPB10402, at DRB1_0101, at DQA10401-DQB10402, on DRB1_1501, at DRB1_1101 and on DQA10501-DQB10201 was under 1000 nM each time. Moreover, on DQA10101-DQB10501, the IC50 was under 1000 nM.
Consider HAVNIVGYSNAQGVDYWIVR [pep-058], for which the IC50 on DRB4_0101, at DRB1_1501, at DRB3_0101, at DRB1_1101, at DQA10501-DQB10201 and at DQA10101-DQB10501 was under 1000 nM each time. The “Solubility at pH 7 (visual inspection)” value in data set [1] was “Slight turbid”.
As for LVGDNGVLASAIATHAKIRD [pep-110], the IC50 at DRB4_0101, at DRB1_0101, on DRB3_0101 and at DRB5_0101 was under 1000 nM throughout.
Take LVKGQQYDIKYTWNVPKIAPK [pep-131]: the IC50 at DRB1_0101 and at DRB5_0101 was under 1000 nM throughout. In addition, the “Solubility at pH 7” value in data set [1] (Table 11a, evaluated by visual inspection) was “Clear”.
